Like-named read-outs stand apart in the source and are kept apart here.
Experiments:
P. aeruginosa EN0460 = assay: MIC; format: cell-based, Pseudomonas aeruginosa; details: Pseudomonas aeruginosa, read-out: MIC
A. baumannii EN016 = assay: MIC, WT; format: cell-based, Acinetobacter baumannii; details: Acinetobacter baumannii, read-out: MIC
P. aeruginosa EN0459 = assay: MIC; format: cell-based, Pseudomonas aeruginosa; details: Pseudomonas aeruginosa, read-out: MIC
K. pneumoniae EN0249 = assay: MIC, colistinR; format: cell-based; details: Klebsiella pneumoniae, read-out: MIC
K. pneumoniae EN0245 = assay: MIC, colistinR; format: cell-based; details: Klebsiella pneumoniae, read-out: MIC
P. mirabilis ST19 EN0445 = assay: MIC; format: cell-based, Proteus mirabilis; details: Proteus mirabilis, read-out: MIC
P. aeruginosa EN014 = assay: MIC, WT; format: cell-based, Pseudomonas aeruginosa; details: Pseudomonas aeruginosa, read-out: MIC
K. pneumoniae EN0463 = assay: MIC; format: cell-based, Klebsiella pneumoniae; details: Klebsiella pneumoniae, read-out: MIC
E. coli EN001 = assay: MIC, WT (EN001 = EN0001, ATCC 25922); format: cell-based, Escherichia coli
P. aeruginosa EN0422 = assay: MIC; format: cell-based, Pseudomonas aeruginosa; details: Pseudomonas aeruginosa, read-out: MIC
S. aureus EN008 = assay: MIC, Gram-positive control; format: cell-based, Staphylococcus aureus; details: Staphylococcus aureus, read-out: MIC
K. pneumoniae EN0244 = assay: MIC, colistinR; format: cell-based; details: Klebsiella pneumoniae, read-out: MIC
E. aerogenes EN0461 = assay: MIC; format: cell-based, Enterobacter aerogenes; details: Klebsiella aerogenes, read-out: MIC
S. flexneri APV00907 = assay: MIC and antibiogram; format: cell-based; details: Shigella flexneri, Table 22A
From the text: Inhibition of Heliobacter is important in view of increasing resistance and its association to gastric cancer.

A. baumannii EN007 = assay: MIC, WT (EN007 = EN0007); format: cell-based, Acinetobacter baumannii; details: Acinetobacter baumannii, read-out: MIC

COc1cc(Cc2cnc(N)nc2N)cc(OC)c1OC [Trimethoprim, trimethoprim]
MIC (P. aeruginosa EN0460; EN0460, Combination 1 AZT+trimethoprim+uridine, Table 16): > 4 µg/mL | MIC (P. aeruginosa EN0460; EN0460, Combination 2 AZT+trimethoprim+uridine+thymidine, Table 16): > 4 µg/mL | MIC (P. aeruginosa EN0460; EN0460, combination AZT+trimethoprim+uridine, Table 6): > 4 µg/mL | MIC (P. aeruginosa EN0460; EN0460, combination FdUrd+trimethoprim+uridine, Table 8): > 8 µg/mL | MIC (P. aeruginosa EN0460; EN0460, combination didanosine+trimethoprim+uridine, Table 10): > 8 µg/mL | MIC (A. baumannii EN016; EN016, Combination 1 AZT+trimethoprim+uridine, Table 16): > 4 µg/mL | MIC (A. baumannii EN016; EN016, Combination 2 AZT+trimethoprim+uridine+thymidine, Table 16): > 4 µg/mL | MIC (A. baumannii EN016; EN016, combination AZT+trimethoprim+uridine, Table 6): > 4 µg/mL | MIC (A. baumannii EN016; EN016, combination FdUrd+trimethoprim+uridine, Table 8): 8 µg/mL | MIC (A. baumannii EN016; EN016, combination didanosine+trimethoprim+uridine, Table 10): > 8 µg/mL | MIC (P. aeruginosa EN0459; EN0459, Combination 1 AZT+trimethoprim+uridine, Table 16): > 4 µg/mL | MIC (P. aeruginosa EN0459; EN0459, Combination 2 AZT+trimethoprim+uridine+thymidine, Table 16): > 4 µg/mL | MIC (P. aeruginosa EN0459; EN0459, combination AZT+trimethoprim+uridine, Table 6): > 4 µg/mL | MIC (P. aeruginosa EN0459; EN0459, combination FdUrd+trimethoprim+uridine, Table 8): > 8 µg/mL | MIC (P. aeruginosa EN0459; EN0459, combination didanosine+trimethoprim+uridine, Table 10): > 8 µg/mL | MIC (K. pneumoniae EN0249; EN0249, combination AZT+trimethoprim+uridine, Table 17B): 1 µg/mL | MIC (K. pneumoniae EN0249; EN0249, combination FdUrd+trimethoprim+uridine, Table 19): > 8 µg/mL | MIC (K. pneumoniae EN0249; EN0249, combination didanosine+trimethoprim+uridine, Table 20): > 8 µg/mL | MIC (K. pneumoniae EN0245; EN0245, combination AZT+trimethoprim+uridine, Table 17B): 1 µg/mL | MIC (K. pneumoniae EN0245; EN0245, combination FdUrd+trimethoprim+uridine, Table 19): > 8 µg/mL | MIC (K. pneumoniae EN0245; EN0245, combination didanosine+trimethoprim+uridine, Table 20): > 8 µg/mL | MIC (P. mirabilis ST19 EN0445; ST19EN0445, Combination 1 AZT+trimethoprim+uridine, Table 16): 1 µg/mL | MIC (P. mirabilis ST19 EN0445; ST19EN0445, Combination 2 AZT+trimethoprim+uridine+thymidine, Table 16): > 4 µg/mL | MIC (P. mirabilis ST19 EN0445; ST19EN0445, combination AZT+trimethoprim+uridine, Table 6): > 4 µg/mL | MIC (P. mirabilis ST19 EN0445; ST19EN0445, combination FdUrd+trimethoprim+uridine, Table 8): 1 µg/mL | MIC (P. mirabilis ST19 EN0445; ST19EN0445, combination didanosine+trimethoprim+uridine, Table 10): 2 µg/mL | MIC (P. aeruginosa EN014; EN014, Combination 1 AZT+trimethoprim+uridine, Table 16): > 4 µg/mL | MIC (P. aeruginosa EN014; EN014, Combination 2 AZT+trimethoprim+uridine+thymidine, Table 16): > 4 µg/mL | MIC (P. aeruginosa EN014; EN014, combination AZT+trimethoprim+uridine, Table 6): > 4 µg/mL | MIC (P. aeruginosa EN014; EN014, combination FdUrd+trimethoprim+uridine, Table 8): > 8 µg/mL | MIC (P. aeruginosa EN014; EN014, combination didanosine+trimethoprim+uridine, Table 10): > 8 µg/mL | MIC (K. pneumoniae EN0463; EN0463, combination AZT+trimethoprim+uridine, Table 6): 0.06 µg/mL | MIC (K. pneumoniae EN0463; EN0463, combination FdUrd+trimethoprim+uridine, Table 8): 0.5 µg/mL | MIC (K. pneumoniae EN0463; EN0463, combination didanosine+trimethoprim+uridine, Table 10): 0.5 µg/mL | MIC (E. coli EN001; Escherichia coli, EN001, Combination 1 AZT+trimethoprim+uridine, Table 16, read-out: MIC): 0.064 µg/mL | MIC (E. coli EN001; Escherichia coli, EN001, combination FdUrd+trimethoprim+uridine, Table 8, read-out: MIC): 0.25 µg/mL | MIC (E. coli EN001; Escherichia coli, EN001, combination didanosine+trimethoprim+uridine, Table 10, read-out: MIC): 0.25 µg/mL | MIC (E. coli EN001; combination FdUrd+trimethoprim+uridine, Table 19): 0.5 µg/mL | MIC (E. coli EN001; combination didanosine+trimethoprim+uridine, Table 20): 0.5 µg/mL | MIC (P. aeruginosa EN0422; EN0422, Combination 1 AZT+trimethoprim+uridine, Table 16): > 8 µg/mL | MIC (P. aeruginosa EN0422; EN0422, Combination 2 AZT+trimethoprim+uridine+thymidine, Table 16): > 4 µg/mL | MIC (P. aeruginosa EN0422; EN0422, combination AZT+trimethoprim+uridine, Table 6): > 4 µg/mL | MIC (P. aeruginosa EN0422; EN0422, combination FdUrd+trimethoprim+uridine, Table 8): > 8 µg/mL | MIC (P. aeruginosa EN0422; EN0422, combination didanosine+trimethoprim+uridine, Table 10): > 8 µg/mL | MIC (S. aureus EN008; EN008, Combination 1 AZT+trimethoprim+uridine, Table 16): 1 µg/mL | MIC (S. aureus EN008; EN008, Combination 2 AZT+trimethoprim+uridine+thymidine, Table 16): > 4 µg/mL | MIC (S. aureus EN008; EN008, combination AZT+trimethoprim+uridine, Table 6): 1 µg/mL | MIC (S. aureus EN008; EN008, combination FdUrd+trimethoprim+uridine, Table 8): < 0.016 µg/mL | MIC (S. aureus EN008; EN008, combination didanosine+trimethoprim+uridine, Table 10): 1 µg/mL | MIC (K. pneumoniae EN0244; EN0244, combination AZT+trimethoprim+uridine, Table 17B): 0.5 µg/mL | MIC (K. pneumoniae EN0244; EN0244, combination FdUrd+trimethoprim+uridine, Table 19): > 8 µg/mL | MIC (K. pneumoniae EN0244; EN0244, combination didanosine+trimethoprim+uridine, Table 20): > 8 µg/mL | MIC (E. aerogenes EN0461; EN0461, Combination 1 AZT+trimethoprim+uridine, Table 16): 0.25 µg/mL | MIC (E. aerogenes EN0461; EN0461, Combination 2 AZT+trimethoprim+uridine+thymidine, Table 16): 2 µg/mL | MIC (E. aerogenes EN0461; EN0461, combination AZT+trimethoprim+uridine, Table 6): 0.25 µg/mL | MIC (E. aerogenes EN0461; EN0461, combination FdUrd+trimethoprim+uridine, Table 8): 2 µg/mL | MIC (E. aerogenes EN0461; EN0461, combination didanosine+trimethoprim+uridine, Table 10): 1 µg/mL | MIC (S. flexneri APV00907; APV00907, combination AZT+trimethoprim+uridine): 2 µg/mL | MIC (S. flexneri APV00907; APV00907, combination FdUrd+trimethoprim+uridine): > 8 µg/mL | MIC (A. baumannii EN007; EN007, Combination 1 AZT+trimethoprim+uridine, Table 16): > 4 µg/mL | MIC (A. baumannii EN007; EN007, Combination 2 AZT+trimethoprim+uridine+thymidine, Table 16): > 4 µg/mL | MIC (A. baumannii EN007; EN007, combination AZT+trimethoprim+uridine, Table 6): > 4 µg/mL | MIC (A. baumannii EN007; EN007, combination FdUrd+trimethoprim+uridine, Table 8): > 8 µg/mL | MIC (A. baumannii EN007; EN007, combination didanosine+trimethoprim+uridine, Table 10): > 8 µg/mL
